The text below walks through data of publication PMC6272137, “Synthesis and Evaluation of Paeonol Derivatives as Potential Multifunctional Agents for the Treatment of Alzheimer’s Disease” (Molecules, 2015).

Each structure is given as a SMILES string. Read-outs that look alike come from different tables or passages of the source.

Data set [1] has as its target T1, AChE from electric eel (Electrophorus electricus, UniProt O42275).
T1 construct: purchased Sigma Aldrich
Nature of the data set: biochemical. Particulars: n = 3, pH 8.0, 37 °C, read-out: AChE Inhibition (IC50). As to the method: Acetylcholinesterase (AChE, E.C.3.1.1.7, from the electric eel), 5,5'-dithiobis-(2-nitrobenzoic acid) (DTNB), acetylthiocholine iodide (ATCI) and donepezil hydrochloride were purchased from Sigma Aldrich. […] Paeonol and 5a–5d were dissolved in DMSO and then diluted by phosphate buffer (pH 8.0) to seven different concentrations in the range of 10^−3–10^−9 M. AChE solutions were prepared in double-distilled water to 2.0 units/mL in 2 mL aliquots. The assay medium contained phosphate buffer, pH 8.0 (1 mL), 50 µL of 0.01 M DTNB, 10 µL of enzyme and 50 µL of acetylthiocholine iodide. Test compounds were added to assay solution and preincubated at 37 °C with enzyme for 15 min, followed by the addition of substrate. Activity was determined by measuring the increase in absorbance at 412 nm at 1 min intervals at 37 ± 0.2 °C. For determining the blank value, 50 µL buffer replaced the AChE solution.

Data set [2] in a line: DPPH free radical scavenging assay. Particulars: read-out: DPPH Scavenging (IC50), concentration causing 50% loss of initial DPPH free radical, mean ± SD, n = 3, 60 min, methanol.
Protocol: Based on their interaction with DPPH (2,2-diphenyl-1-picrylhydrazyl) free radical, antioxidant activities of the new paeonol derivatives were screened. […] Paeonol is used as the positive control.
The stable radical DPPH was used as a reagent in this spectrophotometric assay. […] After a 60 min incubation period at room temperature in the dark, the absorbance was read at 517 nm against the corresponding blank. Inhibition of free radical DPPH in percent (I%) was calculated using the following Equation (1): (1) I%=(Ablank−Asample/Ablank)×100 Where Ablank is the absorbance of DPPH solution (control solution) against the blank, and Asample is the absorbance of the tested compound against the blank. Concentrations caused 50% loss of the initial DPPH free radical scavenging.
Data set [3] has as its system PC12 cells. Kind of data set: Protection of PC12 cells against H2O2-induced cell death (MTT assay). Particulars: then 150 μM H2O2 for 5 h; for cell morphology (phase-contrast microscopy): 40 µM compound, 3 h preincubation. In general terms: Tetrazolium assays rely on reduction of a dye to a coloured formazan, in cell work by metabolically active cells.

The IC50 is the point on the concentration scale where inhibition reaches its midpoint.

T1 sequence (O42275 24-633): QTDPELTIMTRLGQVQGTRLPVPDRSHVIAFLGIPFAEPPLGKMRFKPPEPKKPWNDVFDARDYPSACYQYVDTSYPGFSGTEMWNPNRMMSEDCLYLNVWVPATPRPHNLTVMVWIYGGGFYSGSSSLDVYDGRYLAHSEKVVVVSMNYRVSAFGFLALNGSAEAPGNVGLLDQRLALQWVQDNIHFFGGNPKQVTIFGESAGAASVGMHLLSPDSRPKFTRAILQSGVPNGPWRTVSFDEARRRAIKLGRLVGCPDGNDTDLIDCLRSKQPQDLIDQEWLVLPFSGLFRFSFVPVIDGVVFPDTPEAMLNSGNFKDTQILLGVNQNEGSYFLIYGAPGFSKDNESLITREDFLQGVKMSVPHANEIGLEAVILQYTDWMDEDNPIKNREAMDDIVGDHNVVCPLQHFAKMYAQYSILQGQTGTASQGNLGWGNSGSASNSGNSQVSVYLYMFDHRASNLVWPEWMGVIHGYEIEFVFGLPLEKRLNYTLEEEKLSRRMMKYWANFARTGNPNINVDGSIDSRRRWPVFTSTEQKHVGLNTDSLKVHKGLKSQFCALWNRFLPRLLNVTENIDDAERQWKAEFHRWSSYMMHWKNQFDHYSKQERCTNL

As for `COc1ccc(C(=O)CN2CCN(Cc3ccc(Cl)cc3)CC2)c(O)c1` [5d, 2-(4-(4-Chlorobenzyl)piperazin-1-yl)-1-(2-hydroxy-4-methoxypheny) ethanone], the half-inhibitory concentration (IC50) worked out at 2.63 ± 0.153 µM in data set [1] and 187 ± 13.7 µM in data set [2].
For the compound `COc1ccc(C(=O)CN2CCN(Cc3ccccc3)CC2)c(O)c1` [5a, 2-(4-Benzylpiperazin-1-yl)-1-(2-hydroxy-4-methoxyphenyl) ethanone], the half-maximal inhibitory concentration (IC50) in data set [1] came out at 1.59 ± 0.011 µM; in data set [2], 143 ± 8.83 µM.
For `COc1ccc(C(C)=O)c(O)c1` [Paeonol, 2-hydroxy-4-methoxy-acetophenone], the “protective effect on PC12 cells (MTT)” value in data set [3] (5 μM compound, 3 h pretreatment) is listed as “did not cause any apparent effects”. Besides, the “cell morphology (phase-contrast microscopy)” value in data set [3] is “maintained normal cell morphology”. In addition, the “protective effect (cell viability, MTT)” value in data set [3] (40 μM compound, 3 h pretreatment, control cells = 100%) came to 58.9%. The half-inhibitory concentration (IC50) in data set [2] is 310 ± 5.41 µM; in data set [2] (listed as paeonol), 310 µM.
`COc1ccc(C(=O)CN2CCN(Cc3ccc(C)cc3)CC2)c(O)c1` [5b, 1-(2-Hydroxy-4-methoxyphenyl)-2-(4-(4-methylbenzyl)piperazin-1-yl) ethanone]: the “cell morphology (phase-contrast microscopy)” value in data set [3] is reported as “maintained normal cell morphology”. For the same compound, the IC50 stood at 0.61 ± 0.009 µM in data set [1] and 158 ± 6.88 µM in data set [2].
For `COc1ccc(C(=O)CN2CCN(Cc3ccc([N+](=O)[O-])cc3)CC2)c(O)c1` [5c, 1-(2-Hydroxy-4-methoxyphenyl)-2-(4-(4-nitrobenzyl)piperazin-1-yl) ethanone], the figures for the IC50 in data set [1] and in data set [2] were 7.04 ± 0.032 µM and 192 ± 8.06 µM, respectively.
